Measurements from patent US20240247024A1, “INHIBITORS OF NICOTINAMIDE N-METHYL TRANSFERASE (NNMT)” (UNIVERSITEIT LEIDEN, priority 2021, published 2024).
Values joined by “and” are separate entries in the source; they are usually repeats but may differ in a detail not shown here. Identical values can stand only once. Like-named read-outs stand apart in the source and are kept apart here.

Target: T1, NNMT (Homo sapiens, UniProt P40261)
T1 sequence (P40261 1-264): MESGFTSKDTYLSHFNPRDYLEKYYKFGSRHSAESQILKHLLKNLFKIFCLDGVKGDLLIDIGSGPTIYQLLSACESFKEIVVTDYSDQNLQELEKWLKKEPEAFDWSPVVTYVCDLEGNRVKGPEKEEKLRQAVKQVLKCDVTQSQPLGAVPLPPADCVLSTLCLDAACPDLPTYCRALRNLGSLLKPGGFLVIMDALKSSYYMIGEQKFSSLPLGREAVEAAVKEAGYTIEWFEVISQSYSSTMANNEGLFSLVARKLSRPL
Assay: NNMT assay (HILIC-MS/MS, formation of MNA)
Conditions: NA 200 μM, SAM 8.5 μM

[1] = read-out: IC50 values, Table 1, alkene linked aromatics, maximum concentration tested 25 μM
[2] = IC50 values (nM), Table 6, amino acid replacement, maximum concentration tested 25 μM
[3] = IC50 values (μM), Table 6, amino acid replacement, maximum concentration tested 25 μM

Structure (SMILES)	IC50 [2] [nM]	IC50 [3] [nM]	IC50 [1]	also measured
CC(=O)N(C/C=C/c1ccc(C#N)cc1)C[C@H]1C[C@@H](n2ccc3c(N)ncnc32)[C@H](O)[C@@H]1O [CM037]				IC50 (IC50 values (nM), Table 9, compounds CM035 and CM037): 264 nM; IC50 (IC50 values (μM), Table 9, compounds CM035 and CM037): 260 nM
Nc1ncnc2c1ncn2[C@@H]1O[C@H](CN(C/C=C/c2cccc(C(F)(F)F)c2)CC[C@H](N)C(=O)O)[C@@H](O)[C@H]1O [GYZ-349]			164 nM	
Nc1ncnc2c1ncn2[C@@H]1O[C@H](CN(C/C=C/c2ccccc2C(F)(F)F)CC[C@H](N)C(=O)O)[C@@H](O)[C@H]1O [GYZ-326]			2850 nM	
Nc1ncnc2c1ncn2[C@@H]1O[C@H](CN(C/C=C/c2c(Cl)cccc2Cl)CC[C@H](N)C(=O)O)[C@@H](O)[C@H]1O [GYZ-336]			> 25000 nM	
N#Cc1ccc(/C=C/CN(CC[C@H](N)C(=O)O)C[C@H]2O[C@@H](n3cnc4c(N)ncnc43)[C@H](O)[C@@H]2O)cc1C(N)=O [GYZ-755]			29 nM and 28.7 nM	
N#Cc1c(F)cc(/C=C/CN(CC[C@H](N)C(=O)O)C[C@H]2O[C@@H](n3cnc4c(N)ncnc43)[C@H](O)[C@@H]2O)cc1F [GYZ-670]			2 nM and 1.99 nM	
N#Cc1ccc(/C=C/CN(CCCCc2ccccc2)C[C@H]2O[C@@H](n3cnc4c(N)ncnc43)[C@H](O)[C@@H]2O)cc1 [GYZ-756]	> 25000	> 25000		
Nc1ncnc2c1ncn2[C@@H]1O[C@H](CN(CC[C@H](N)C(=O)O)Cc2cccc(F)c2)[C@@H](O)[C@H]1O [GYZ-422]				IC50 (IC50 values (nM), Table 3, 1-carbon alkyl linkers, maximum concentration tested 25 μM): 1240 nM; IC50 (IC50 values (μM), Table 3, 1-carbon alkyl linkers, maximum concentration tested 25 μM): 1240 nM
N#Cc1c(F)c(F)c(/C=C/CN(CC[C@H](N)C(=O)O)C[C@H]2O[C@@H](n3cnc4c(N)ncnc43)[C@H](O)[C@@H]2O)c(F)c1F [MH610]				IC50 (IC50 values (nM), Table 1, alkene linked aromatics, maximum concentration tested 25 μM): 7.14 nM; IC50 (IC50 values (μM), Table 1, alkene linked aromatics, maximum concentration tested 25 μM): 7 nM
N#Cc1ccc(/C=C/CN(CC[C@H](N)C(=O)O)C[C@H]2O[C@@H](n3cnc4c(N)ncnc43)[C@H](O)[C@@H]2O)c(F)c1 [GYZ-674]			5 nM and 5.33 nM	
N#Cc1ccc(/C=C/CN(CCS(=O)(=O)F)C[C@H]2O[C@@H](n3cnc4c(N)ncnc43)[C@H](O)[C@@H]2O)cc1 [GYZ-748]	> 25000	> 25000		

Second part, led by results:

IC50 [2] [nM]	IC50 [3] [nM]	Structure (SMILES)	IC50 [1]	also measured
> 25000	> 25000	CCCCCN(C/C=C/c1ccc(C#N)cc1)C[C@H]1O[C@@H](n2cnc3c(N)ncnc32)[C@H](O)[C@@H]1O [GYZ-718]		
> 25000	> 25000	N#Cc1ccc(/C=C/CN(CCNC(=O)C(F)(F)Cl)C[C@H]2O[C@@H](n3cnc4c(N)ncnc43)[C@H](O)[C@@H]2O)cc1 [GYZ-701]		
980	980	N#Cc1ccc(/C=C/CN(CC(=O)CCl)C[C@H]2O[C@@H](n3cnc4c(N)ncnc43)[C@H](O)[C@@H]2O)cc1 [GYZ-702]		
> 25000	> 25000	N#Cc1ccc(/C=C/CN(CCNC(=O)C(F)(F)Br)C[C@H]2O[C@@H](n3cnc4c(N)ncnc43)[C@H](O)[C@@H]2O)cc1 [GYZ-706]		
